# According to patent US8097625B2, “Combination of sedative and a neurotransmitter modulator, and methods for improving sleep quality and treating depression” (priority 2003, dated 2012):
# Tests used:
# Assay type in all cases: in vivo, human
# [1] = system: subjects with insomnia related to major depressive disorder; experiment: DREAMDD clinical study: fluoxetine titration (20 mg to 40 mg at Visit 7); conditions: for Subjects on Fluoxetine Hydrochloride 20 mg / Subjects on Fluoxetine Hydrochloride 40 mg: eszopiclone 3 mg group, ITT
# Description: In addition, subjects were randomized at Visit 3 (end of baseline) to treatment with one of the following nightly (at bedtime): eszopiclone (3 mg) or matching placebo.
# Sleep, Depression, and Productivity Questionnaires and Clinical Global Impression: The following questionnaires were administered as listed below. • Epworth Sleepiness Scale (ESS): ESS was completed by the subject at Visits 2-10. The ESS is a subjective assessment of the likelihood of falling asleep in various situations. • Insomnia Severity Index (ISI): ISI was completed by the subject at Visits 3, 5, 7, 9 and 10. The ISI is a subjective assessment of sleep quality, restedness/refreshness upon arising, daytime fatigue, attention/concentration and relationship and mood disturbances. • Work Limitations Questionnaire (WLQ): WLQ was completed by the subject at Visits 3, 5, 7, 9, and 10. The WLQ is a validated self-report instrument for measuring the degree to which chronic health problems interfere with ability to perform job roles, addressing the content of the job through a demand-level methodology. • Hamilton Depression-17: HAM-D-17 was administered via IVRS at screening and rated by a trained clinician at Visits 3, 7, 9, and 10. • SF-36: SF-36 was completed by the subject at Visits 3, 7, 9 and 10. The SF-36 represents multiple operational definitions of health, including function and dysfunction, distress and well-being, objective reports and subjective ratings, and both favorable and unfavorable self-evaluations of general health status. • Clinical Global Impression (CGI): CGI was completed by the investigator at Visits 3-10 The CGI is the investigator's subjective assessment of improvement in the subject's depressive symptoms. The response on the CGI at Visit 7 (Week 4 of double-blind treatment) was used by the investigator to assess the need for increasing the dose of fluoxetine to 40 mg daily (in the morning). […] Study Conduct
# Visit 7 occurred 7 (±2) days after Visit 6. […] Double-blind dosing (at bedtime) continued nightly through Visit 9. • 1. Collected and reviewed the MEC. Recorded all changes in concurrent medications, including OTC and health and dietary supplements, and AEs that may have occurred between Visit 6 and Visit 7. • 2. […] Subjects completed the ESS, 1SI, WLQ, and SF-36 questionnaires prior to performing any other study related procedures. The questionnaires were reviewed for completeness by study staff. Any items left blank were returned to the subject for completion. • 4. A trained clinician administered the Hamilton-D-17 to assess depression symptoms. • 5. The investigator completed the Clinical Global Impression. […] If an increased dose of fluoxetine was required, the investigator dispensed the double-blind blister pack containing the 40 mg dose of fluoxetine. • 6. Dispensed the appropriate Visit 7 double-blind blister pack. […] Note: only one Visit 7 blister card was dispensed. • 7. Obtained vital signs (seated) and weight. • 8. Obtained blood and urine samples for clinical laboratory assessments including urinalysis, urine drug and alcohol screen, and a serum pregnancy tests on all women. • 9. Reviewed use of IVRS and the schedule for calling. Subjects call the IVRS the morning following this visit and on the morning of Visit 8 (prior to the visit). • 10. Issued MEC and instruct the subject on its use. • 11. Scheduled Visit 8 in 14 (±2) days. Visit 8 (Double-Blind Treatment Week 6)
# [2] = DREAMDD clinical study: subject disposition; conditions: of 270 randomized; 3 mg nightly + fluoxetine
# Description: Subjects who discontinued early for any reason were replaced.
# Subject Disposition and Drug Exposure: Subject disposition was summarized and presented for the number and percentage of subjects, who were screened, randomized, received treatment, completed the study, and discontinued early (including reasons for discontinuations). For each subject, the number of doses taken was computed from the study drug dispensation and accountability CRF records obtained at each visit, assuming that subjects took their study drug medication evenly throughout the between-visits periods. The extent of exposure to the double-blind medication as well as the number of doses taken during the double-blind treatment period was summarized with descriptive statistics and presented by treatment group.
# [3] = DREAMDD clinical study: tolerability and adverse events; conditions: 8 weeks
# Description: Safety was assessed by physical examinations, a standard 12-lead ECG, vital signs, clinical laboratory assessments and AE reporting.
# Adverse Events (AEs): Subjects were queried in a non-leading manner, without specific prompting (e.g., “How are you feeling?”) to assess whether they are suffering from any adverse events.
# Adverse Events: All adverse experiences were coded using the COSTART dictionary (Coding Symbols for a thesaurus of Adverse Event Terms; version 5.0, 1995). Treatment emergent adverse experiences was defined as 1) AEs that occurred or worsened (increased in severity and/or frequency) on or after the first dose of study medication, 2) AEs with a missing start data and a stop date on or after the first dose of study medication, or 3) AEs with both a missing start and stop date. Treatment emergent AEs was summarized by treatment and by COSTART body system and preferred term. AEs that occurred within 14 days after treatment discontinuation was considered treatment-emergent AEs.
structure (smiles),measurement,setting,value
"CN1CCN(C(=O)OC2c3nccnc3C(=O)N2c2ccc(Cl)cn2)CC1 (single isomer, unassigned; (+)) [Eszopiclone, (+) 6-(5-chloro-2-pyridinyl)-6,7-dihydro-7-oxo-5H-pyrrolo[3,4b]pyrazin-5-yl 4-methylpiperazine-1-carboxylate]",Subjects on Fluoxetine Hydrochloride 20 mg,[1]; Visit 7 (Week 4),125 (55.8%) n (%)
same,Subjects on Fluoxetine Hydrochloride 40 mg,[1]; Visit 7 (Week 4),99 (44.2%) n (%)
same,Subjects on Fluoxetine Hydrochloride 20 mg,[1]; Visit 8 (Week 6),115 (54.0%) n (%)
same,Subjects on Fluoxetine Hydrochloride 40 mg,[1]; Visit 8 (Week 6),98 (46.0%) n (%)
same,Subjects on Fluoxetine Hydrochloride 20 mg,[1]; Visit 9 (Week 8),103 (52.8%) n (%)
same,Subjects on Fluoxetine Hydrochloride 40 mg,[1]; Visit 9 (Week 8),92 (47.2%) n (%)
same,antidepressant dose escalation to higher dose of fluoxetine,[1]; co-administration with fluoxetine vs placebo,less patients in this study required antidepressant dose escalation
same,Fluoxetine dose increases,"[1]; p<0.05 vs placebo, 3 mg nightly + fluoxetine",44%
same,"Subject Disposition: Discontinued, AE",[2],17 (6.3) n (%)
same,"Subject Disposition: Discontinued, Treatment for Insomnia Failure",[2],2 (0.7) n (%)
same,unpleasant taste compared to placebo,[3]; 3 mg QHS + fluoxetine QAM,more common
same,drop-outs due to AEs versus placebo,[3]; 3 mg nightly + fluoxetine,comparable
same,tolerability of co-administration with fluoxetine,"[3]; 3 mg nightly + fluoxetine, MDD and insomnia",well-tolerated
